Legend:
[1] = molecular target: acetylcholinesterase (AChE) (Homo sapiens, UniProt P22303); assay: biochemical; format: biochemical; settings: for IC50: read-out: AChE IC50 (µM ± SEM)
Experimental: (§1) The AChE/(BuChE) inhibitory test was measured using a spectrophotometric method developed by Elman et al.. A buffer solution containing phosphate (pH 8.0) of volume 140 μL; 20 μL of each AChE/BuChE solution; and 20 μL of the test sample were incubated at room temperature for 15 min. […] was used to start the reaction, followed by the addition of DTNB. ATCh or BTCh hydrolyzed the reaction of DTNB with thiocholine for 15 min; unrestricted by AChE and BuChE enzymatic hydrolysis. […] Each sample’s inhibitory activity was measured in terms of IC50 ([…]) or μM. For all substances, the IC50 values were derived using a generic graph.

[2] = molecular target: butyrylcholinesterase (BuChE) (Homo sapiens, UniProt P06276); assay: biochemical; format: biochemical; settings: for IC50: read-out: BuChE IC50 (µM ± SEM)
Experimental: as §1

Sequence of butyrylcholinesterase (BuChE) (P06276 29-602): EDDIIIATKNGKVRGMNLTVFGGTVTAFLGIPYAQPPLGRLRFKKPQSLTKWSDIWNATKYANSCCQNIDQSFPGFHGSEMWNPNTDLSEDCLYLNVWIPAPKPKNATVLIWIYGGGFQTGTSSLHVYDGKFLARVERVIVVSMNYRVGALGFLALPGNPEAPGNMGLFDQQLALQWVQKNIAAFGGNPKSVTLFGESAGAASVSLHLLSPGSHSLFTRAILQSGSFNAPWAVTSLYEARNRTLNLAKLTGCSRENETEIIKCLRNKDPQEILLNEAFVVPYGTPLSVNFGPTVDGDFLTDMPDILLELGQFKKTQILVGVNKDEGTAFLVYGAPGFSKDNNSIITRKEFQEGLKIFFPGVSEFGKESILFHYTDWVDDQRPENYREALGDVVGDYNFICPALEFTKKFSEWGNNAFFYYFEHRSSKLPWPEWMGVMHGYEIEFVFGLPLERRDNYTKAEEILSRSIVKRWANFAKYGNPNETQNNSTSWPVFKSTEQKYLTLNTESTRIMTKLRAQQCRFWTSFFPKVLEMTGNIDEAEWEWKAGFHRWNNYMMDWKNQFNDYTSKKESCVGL
Sequence of acetylcholinesterase (AChE) (P22303 32-614, species assumed): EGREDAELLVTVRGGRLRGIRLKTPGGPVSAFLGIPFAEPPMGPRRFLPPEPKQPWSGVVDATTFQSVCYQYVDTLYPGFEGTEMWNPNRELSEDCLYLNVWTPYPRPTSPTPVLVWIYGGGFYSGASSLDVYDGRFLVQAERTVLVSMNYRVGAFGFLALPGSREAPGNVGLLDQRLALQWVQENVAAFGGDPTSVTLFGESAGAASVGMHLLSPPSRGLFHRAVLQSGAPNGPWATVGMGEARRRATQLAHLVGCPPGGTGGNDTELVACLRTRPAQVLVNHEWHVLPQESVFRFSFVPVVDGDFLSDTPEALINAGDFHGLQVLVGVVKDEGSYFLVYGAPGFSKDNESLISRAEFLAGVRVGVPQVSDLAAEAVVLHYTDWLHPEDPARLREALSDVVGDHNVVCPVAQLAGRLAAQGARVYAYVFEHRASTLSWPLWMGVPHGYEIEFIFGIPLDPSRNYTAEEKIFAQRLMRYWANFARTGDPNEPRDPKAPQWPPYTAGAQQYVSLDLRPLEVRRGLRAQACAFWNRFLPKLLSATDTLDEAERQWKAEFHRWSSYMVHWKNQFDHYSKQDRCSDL

## COc1ccc2[nH]c(-c3ccc([N+](=O)[O-])cc3)nc2c1 [Compound 1, 5-Methoxy-2-(4-Nitrophenyl)-1H-Benzo[d]-Imidazole]
[1]
  IC50: 2.1 ± 0.1 µM
[2]
  IC50: 1.6 ± 0.1 µM

## COc1ccc2[nH]c(-c3cccc([N+](=O)[O-])c3)nc2c1 [Compound 2, 5-Methoxy-2-(3-Nitrophenyl)-1H-Benzo[d]-Imidazole]
[1]
  IC50: 5.1 ± 0.1 µM
[2]
  IC50: 5.9 ± 0.1 µM

## COc1ccc2[nH]c(-c3ccc(Cl)c(Cl)c3)nc2c1 [Compound 3]
[1]
  IC50: 0.05 ± 0.001 µM
[2]
  IC50: 0.08 ± 0.001 µM

## COc1ccc2[nH]c(-c3ccccc3[N+](=O)[O-])nc2c1 [Compound 4]
[1]
  IC50: 3.4 ± 0.1 µM
[2]
  IC50: 3.6 ± 0.1 µM

## COc1ccc2[nH]c(-c3ccc4ccccc4c3)nc2c1 [Compound 5]
[1]
  IC50: 25.3 ± 0.4 µM
[2]
  IC50: 25.8 ± 0.4 µM

## COc1ccc2[nH]c(-c3ccc(C)cc3C)nc2c1 [Compound 6]
[1]
  IC50: 4.1 ± 0.1 µM
[2]
  IC50: 5.1 ± 0.2 µM

## COc1ccc2[nH]c(-c3ccc(OCc4ccccc4)cc3)nc2c1 [Compound 7]
[1]
  IC50: 5.8 ± 0.1 µM
[2]
  IC50: 5.9 ± 0.1 µM

## COc1ccc2[nH]c(-c3ccc(N(C)C)cc3)nc2c1 [Compound 8]
[1]
  IC50: 6.8 ± 0.2 µM
[2]
  IC50: 4.7 ± 0.1 µM

## COc1ccc2[nH]c(-c3ccc(OC)c(O)c3)nc2c1 [Compound 9]
[1]
  IC50: 2.3 ± 0.1 µM
[2]
  IC50: 2.1 ± 0.1 µM

## COc1ccc2[nH]c(-c3cc(Cl)cc(Cl)c3O)nc2c1 [Compound 10]
[1]
  IC50: 0.1 ± 0.001 µM
[2]
  IC50: 0.4 ± 0.001 µM

## COc1ccc2[nH]c(-c3ccc(Cl)cc3Cl)nc2c1 [Compound 11]
[1]
  IC50: 0.2 ± 0.001 µM
[2]
  IC50: 0.3 ± 0.001 µM

## COc1ccc2nc(-c3ccc(-c4nc5ccc(OC)cc5[nH]4)cc3)[nH]c2c1 [Compound 12]
[1]
  IC50: 5.1 ± 0.1 µM
[2]
  IC50: 5.8 ± 0.1 µM

## COc1ccc2[nH]c(-c3c4ccccc4cc4ccccc34)nc2c1 [Compound 13]
[1]
  inhibition of acetylcholinesterase, in words: did not show any activity
[2]
  inhibition of butyrylcholinesterase, in words: did not show any activity

## COc1ccc2[nH]c(-c3c(O)ccc4ccccc34)nc2c1 [Compound 14]
[1]
  inhibition of acetylcholinesterase, in words: did not show any activity
[2]
  inhibition of butyrylcholinesterase, in words: did not show any activity

## COc1ccc2[nH]c(-c3ccc(O)cc3)nc2c1 [Compound 15]
[1]
  IC50: 0.8 ± 0.001 µM
[2]
  IC50: 0.9 ± 0.001 µM

## COc1ccc2[nH]c(-c3cccc(O)c3)nc2c1 [Compound 16]
[1]
  IC50: 1.3 ± 0.1 µM
[2]
  IC50: 2.1 ± 0.1 µM

## COc1ccc2[nH]c(-c3cc(Br)ccc3OC)nc2c1 [Compound 17]
[1]
  IC50: 6.1 ± 0.1 µM
[2]
  IC50: 3.9 ± 0.1 µM

## CCOc1ccc(-c2nc3cc(OC)ccc3[nH]2)cc1OC [Compound 18]
[1]
  IC50: 11.3 ± 0.3 µM
[2]
  IC50: 9.8 ± 0.3 µM

## COc1ccc(-c2nc3cc(OC)ccc3[nH]2)c(OC)c1 [Compound 19]
[1]
  IC50: 9.2 ± 0.2 µM
[2]
  IC50: 6.8 ± 0.2 µM

## COc1ccc2[nH]c(-c3cc(OC)c(Br)cc3OC)nc2c1 [Compound 20]
[1]
  inhibition of acetylcholinesterase, in words: did not show any activity
[2]
  inhibition of butyrylcholinesterase, in words: did not show any activity

## COc1ccc2[nH]c(-c3cc(OC)c(O)c(OC)c3)nc2c1 [Compound 21]
[1]
  IC50: 2.1 ± 0.1 µM
[2]
  IC50: 2.7 ± 0.1 µM
